Source: US10428013B2, “Amide compound, preparation method and uses thereof” (Shanghai Institute of Phamaceutical Industry, priority 2011, dated 2019)

Legend:
[1] = tested on: Hyperlipemia Model of SD Rat; assay: Screening in the hyperlipemia model of SD rat (fat emulsion by gavage; serum lipids); type: in vivo; conditions: hyperlipemia SD rats, 40 mg/kg, dosed 21 days, X ± SD
Experimental: Materials and Methods for Screening with the Compounds Prepared in Experiment 1 to 21 in the Hyperlipemia Model of SD Rat
SD rats, male, 150-180 g, supplied by Shanghai Slaccas Laboratory Animal Company Limited.
Preparation of fat emulsion: 500 g lard oil was weighed and placed into a vessel, heated for melting, and upon heating up to the temperature of 100° C., 200 g cholesterol was added and fully dissolved, then 20 g propylthiouracil was added. After full stirring and dissolving, 500 ml Tween 80 was added to give an oil phase. Meanwhile, 600 ml distilled water and 400 ml 1,2-propylene glycol were heated to 60° C. in water bath, and then 40 g sodium deoxycholate was added with stirring, until full dissolution, to give an aqueous phase. The aqueous phase was added into the oil phase and fully and uniformly mixed, to prepare the fat emulsion.
Formulation of the solution for the compounds: an appropriate amount of compounds was triturated with appropriate amount of Tween 80 for homogeneous dispersion, and then sufficient CMC-Na solution was added and fully triturated, suspended to give the solution for the compounds.
The animals were fed for acclimation for 3 days, with 8 animals as blank control (Control) according to weight, and the rest was subject to intragastric administration of fat emulsion at 1 ml/100 g weight at A.M. 9:00-11:00 daily for continuous 2 weeks; the animals were fasted for 12 hours, and had 1 ml blood sampled at orbital cavity, which was measured with the Hitachi Automatic Biochemical Analyzer 7080 for serum cholesterol (CHO), triglyceride (TO), low-density lipoprotein (LDL-C) and high-density lipoprotein (HDL-C), with the animals having CHO of 4-7 mmol/L for experiment.
The animals dosed with fat emulsion for 2 weeks were divided into model group (Model), simvastatin group (Sim, 10 mg/kg) and compound group (40 mg/kg) according to weight, and continued to receive intragastric administration with fat emulsion; at the same time, the dosed group was administered with respective amount of drug, and the model group was administered with equal volume of solvent. Fat emulsion was dosed by gavage at A.M., and drug was dosed at P.M. The animals were weighed at Monday, and were observed. The animals were dosed for continuous 21 days, and fasted for 12 hours, with 1 ml blood sampling at orbital cavity. The liver was exposed and observed for pathologic condition; after slicing and weighing, it was fixed into the 4% formaldehyde solution for pathologic examination.
The Hitachi Automatic Biochemical Analyzer 7080 was used to measure serum cholesterol (CHO), triglyceride (TG), low-density lipoprotein (LDL-C) and high-density lipoprotein (HDL-C).
Laboratory data were expressed as X±SD (Standard Deviation), and comparison between groups was carried out by t-testing.

[2] = tested on: Cholelithiasis Model of Golden Hamster; assay: Screening in the cholelithiasis model of golden hamster (biochemical measurement of bile); type: in vivo, golden hamsters; conditions: dosed 45 days, X ± SD
Experimental: Screening with the Compounds Prepared in Experiment 1 to 21 in the Cholelithiasis Model of Golden Hamster
68 male golden hamsters, 50-60 g, supplied by Shanghai Slaccas Laboratory Animal Company Limited.
The animals were fed for acclimation for 3 days, with 8 animals as blank control (Control) according to weight. The control was dosed with normal rat feedstuff, and the rest was dosed with feedstuff leading to cholelithiasis (sucrose 32.1%, cheese 64.2%, cholesterol 0.2%, salt 3%, vitamin B1 […], concentrated fish liver oil 0.4%). The animals were fed for acclimation for another 7 days, and divided into model group (Model), simvastatin group (Sim, 10 mg/kg), Ursodesoxycholic acid group (UDCA, 40 mg/kg), and compound group, n=6/group.
[…] 2:00-3:00 daily. The animals were weighed at Monday, and observed for hair color, stool, and variation of activation level.
The animals were dosed for continuous 45 days and then fasted for 12 hours; were anesthetized with 30 mg/kg sodium secobarbital via intraperitoneal injection; had 1 ml blood sampled via abdominal aorta; had gallbladder exposed, with an orifice on the gallbladder being clamped by the ophthalmological pliers and bile in the gallbladder being sucked with 1 ml syringe.
The Hitachi Automatic Biochemical Analyzer 7080 was used to measure cholesterol (CHO), total total bilirubin (TBIL), total bile acid (TBA) and total protein (TP) in bile.
Laboratory data was expressed as X±SD, and comparison of measurement data between groups was carried out by t-testing, with non-parametric testing for enumeration data.

| Structure (SMILES) | CHO1 Concentration (serum cholesterol) [1] [mmol/L] | HDL-C Concentration (serum high-density lipoprotein) [1] [mmol/L] | LDL-C Concentration (serum low-density lipoprotein) [1] [mmol/L] | TG Concentration (serum triglyceride) [1] [mmol/L] | further results |
| --- | --- | --- | --- | --- | --- |
| COc1ccc(OCCCC(C)(C)C(=O)NCC(=O)c2ccc(O)c(C)c2)cc1C [Compound 14] | 20.66 ± 3.23 | 2.25 ± 0.22 | 20.78 ± 3.46 | 0.99 ± 0.28 |  |
| Cc1ccc(C)c(OCCCC(C)(C)C(=O)NCC(=O)c2ccc(OC(=O)C(C)(C)CCCOc3cc(C)ccc3C)cc2)c1 [Compound 06] | 16.37 ± 2.26 | 1.49 ± 0.29 | 15.78 ± 2.00 | 1.53 ± 0.16 |  |
| Cc1ccc(C)c(OCCCC(C)(C)C(=O)NCC(=O)c2ccc(O)cc2)c1 [Compound 05] | 15.30 ± 2.45 | 1.54 ± 0.24 | 14.38 ± 2.12 | 1.31 ± 0.15 |  |
| CC(Oc1ccc(Cl)cc1)(C(=O)NCC(=O)c1ccc(O)cc1)C1CC1 (stereo not shown) [Compound 20] | 19.88 ± 0.84 | 2.63 ± 0.57 | 18.48 ± 0.43 | 1.72 ± 0.26 | Cholesterol (CHO) in bile ([2]; 20 mg/kg): 0.92 ± 0.66 mmol/L; Total bile acid (TBA) in bile ([2]; 20 mg/kg): 16.80 ± 9.62 mmol/L; Total protein (TP) in bile ([2]; 20 mg/kg): 32.94 ± 19.18 g/L; Total total bilirubin (TBIL) in bile ([2]; 20 mg/kg): 75.92 ± .072 µmol/L |
| CC(C)(Oc1ccc(C2CC2(Cl)Cl)cc1)C(=O)NCC(=O)c1ccc(OC(=O)C(C)(C)Oc2ccc(C3CC3(Cl)Cl)cc2)cc1 (stereo not shown) [Compound 08] | 12.92 ± 2.10 | 2.12 ± 0.27 | 11.41 ± 1.90 | 0.83 ± 0.13 |  |
| CCC(C)(Oc1ccc(C2(c3ccc(OC(C)(CC)C(=O)NCC(=O)c4ccc(O)cc4)cc3)CCCCC2)cc1)C(=O)NCC(=O)c1ccc(O)cc1 (stereo not shown) [Compound 12] | 20.17 ± 1.27 | 1.895 ± 0.39 | 19.31 ± 1.52 | 0.75 ± 0.25 |  |
| Cc1cc(C(=O)CCNC(=O)C(C)(CCCOc2cc(Cl)ccc2C)C(C)C)ccc1O (stereo not shown) [Compound 15] | 15.00 ± 2.75 | 1.89 ± 0.26 | 14.04 ± 3.12 | 1.34 ± 0.48 |  |
| CC(C)(Oc1ccc(C(=O)c2ccc(Cl)cc2)cc1)C(=O)NCC(=O)c1ccc(OC(=O)C(C)(C)Oc2ccc(C(=O)c3ccc(Cl)cc3)cc2)cc1 [Compound 04] | 10.02 ± 1.80 | 1.82 ± 0.19 | 9.84 ± 1.37 | 1.15 ± 0.12 |  |
| CC(C)(Oc1ccc(C2CC2(Cl)Cl)cc1)C(=O)NCC(=O)c1ccc(O)cc1 (stereo not shown) [Compound 07] | 14.99 ± 1.45 | 1.74 ± 0.46 | 13.90 ± 1.21 | 1.39 ± 0.16 |  |
| CCC(C)(Oc1ccc(C2(c3ccc(OC(C)(CC)C(=O)NCC(=O)c4ccc(O)cc4)cc3)CCCCC2)cc1)C(=O)O (stereo not shown) [Compound 11] | 12.18 ± 3.12 | 1.79 ± 0.34 | 11.37 ± 3.66 | 1.13 ± 0.14 | Cholesterol (CHO) in bile ([2]; 80 mg/kg): 0.82 ± 0.58 mmol/L; Total bile acid (TBA) in bile ([2]; 80 mg/kg): 17.46 ± 7.77 mmol/L; Total protein (TP) in bile ([2]; 80 mg/kg): 28.66 ± 8.48 g/L; Total total bilirubin (TBIL) in bile ([2]; 80 mg/kg): 48.9 ± 22.10 µmol/L |
| CCC(CC)(CCCOc1cc(C)cc(C)c1)C(=O)NCC(=O)c1cccc(O)c1 [Compound 13] | 20.17 ± 1.27 | 1.895 ± 0.39 | 19.31 ± 1.52 | 0.75 ± 0.25 |  |
| C[C@H](CCC(=O)O)[C@H]1CC[C@H]2[C@@H]3[C@@H](O)C[C@@H]4C[C@H](O)CC[C@]4(C)[C@H]3CC[C@]12C [Ursodesoxycholic acid, reference compound] |  |  |  |  | Cholesterol (CHO) in bile ([2]; 40 mg/kg): 0.98 ± 0.47 mmol/L; Total bile acid (TBA) in bile ([2]; 40 mg/kg): 12.23 ± 3.04 mmol/L; Total protein (TP) in bile ([2]; 40 mg/kg): 28.63 ± 10.37 g/L; Total total bilirubin (TBIL) in bile ([2]; 40 mg/kg): 89.4 ± 45.3 µmol/L |
| CC(C)(Oc1ccc(CCNC(=O)c2ccc(Cl)cc2)cc1)C(=O)NCC(=O)c1ccc(O)cc1 [Compound 01] | 14.84 ± 1.06 | 1.56 ± 0.25 | 13.90 ± 1.23 | 0.66 ± 0.13 |  |
| Cc1ccc(C)c(OCCCC(C)(C)C(=O)NCC(=O)c2cc(O)cc(O)c2)c1 [Compound 19] | 11.12 ± 1.01 | 1.36 ± 0.66 | 10.76 ± 1.25 | 0.94 ± 0.06 |  |
| CC(C)(Oc1ccc(CCNC(=O)c2ccc(Cl)cc2)cc1)C(=O)NCC(=O)c1ccc(OC(=O)C(C)(C)Oc2ccc(CCNC(=O)c3ccc(Cl)cc3)cc2)cc1 [Compound 02] | 17.29 ± 3.23 | 1.68 ± 0.38 | 16.01 ± 2.99 | 0.68 ± 0.18 |  |
| CC(C)(Oc1ccc(Cl)cc1)C(=O)NCC(=O)c1ccc(OC(=O)C(C)(C)Oc2ccc(Cl)cc2)cc1 [Compound 10] | 9.73 ± 1.79 | 2.66 ± 0.24 | 8.27 ± 1.46 | 0.94 ± 0.15 |  |
| Cc1ccc(C)c(OCCCC(C)(C)C(=O)NCC(=N)c2ccc(O)c(Cl)c2)c1 [Compound 17] | 10.54 ± 3.23 | 1.82 ± 0.22 | 8.13 ± 3.46 | 0.88 ± 0.28 |  |
| CC(C)(Oc1ccc(C(=O)c2ccc(Cl)cc2)cc1)C(=O)NCC(=O)c1ccc(O)cc1 [Compound 03] | 12.63 ± 2.77 | 1.54 ± 0.20 | 11.11 ± 2.45 | 0.99 ± 0.18 |  |
| Cc1ccc(C)c(OCCCC(C)(C)C(=O)NC2CCC(C(=S)c3ccc(O)cc3)CC2)c1 (stereo not shown) [Compound 18] | 15.04 ± 2.73 | 1.56 ± 0.51 | 13.47 ± 3.68 | 1.25 ± 0.33 |  |
| CC(C)(Oc1ccc(Cl)cc1)C(=O)NCC(=O)c1ccc(O)cc1 [Compound 09] | 13.64 ± 2.14 | 2.18 ± 0.22 | 11.64 ± 2.00 | 0.95 ± 0.14 |  |
